“And” between values parts separate entries of the source, which are not always exact repeats. Equal entries are not always repeated. Where two headings read alike, the source gives them in different places.
How the values were obtained:
[1] = General cytotoxicity test on HepG2 cells; type: cell-based; details: human, 72 h incubation, 200 to 0.78 µM, average values of several tests, read-out: Hep-G2 CC50, mkM
Description: Cell viability was assessed using the above method. Table 6. […] The results are presented as average values of activity obtained in several tests.

[2] = Enzyme stability in human liver S9 fractions; type: in vitro ADME; details: pH 7.4; 0,5 mg/mL pooled human liver S9 fractions; 10 µM compound; 37°C; pH=7,4
Description: Measuring of candidates' enzyme stability enabled estimation of the stability of the present compounds towards the action of enzymes in human liver S9 fractions.
Enzyme degradation rate was measured by incubating the reaction mixture in a dry block thermostat at 37°C, said reaction mixture comprising 0,5 mg/mL of pooled human liver S9 fractions (XenoTech, USA, cat#H0610), 10 µM compound, 2 mM β-nicotinamide adenine dinucleotide (Carbosynth, UK, cat#NN10871) and 4 mM magnesium chloride in 0,1 M sodium-phosphate buffer, pH=7,4. The reaction was quenched with acetonitrile (100 µL of acetonitrile / 100 µL of the reaction mixture). After quenching, the samples were centrifuged at 10000 rpm for 10 minutes. Supernatant fluid was tested by chromatographic technique using Agilent1200 (Agilent, USA). Chromatographic analysis was performed in a gradient elution regime with a flow rate of 1 mL/min. A graph of the logarithm of substance's peak area as a function of time was made.

[3] = tested on: MV4-11; assay: Cell-based antiproliferative test (AlamarBlue), MV4-11; details: Homo sapiens, MV4-11, 120 h, 120 h incubation; average values of several tests; read-out: MV-4-11 IC50, mkM
[4] = Permeability through Caco-2 cell monolayer; type: in vitro ADME; details: human, Caco-2; for Papp A→B at 2 h, 10 µM: A->B transfer, pH 6.5 -> pH 7.4, 2 hours at 37 °C; for efflux ratio at 2 h, 10 µM: efflux = Papp B-A / Papp A-B
Description: Estimation of permeability through Caco-2 cell monolayer enables assessment of the ability of the substances to penetrate through biological membranes by means of both active and passive transport.
Intestinal epithelial cells Caco-2 were grown on filter inserts (pore size 0.4 µm, BD Falcon with High Density) for 21 days; monolayer integrity was then checked using Lucifer Yellow (Sigma-Aldrich, USA) according to the standard protocol. In A->B transfer ("intestinal lumen" - "blood stream" transfer), solutions of the test substances in buffer, pH 6.5 (HBSS, 10 mM HEPES, 15 mM glucose) at a concentration of 10 µM were added to the upper chamber; whereas the lower chamber was filled with buffer, pH 7.4 (HBSS, 10 mM HEPES, 15 mM Glucose, 1% BSA). In B->A transfer ("blood stream" - "intestinal lumen" transfer), the upper chamber was filled with buffer, pH 6.5, whereas the solutions of the test substances in buffer, pH 7.4, at a concentration of 10 µM were added to the lower chamber. A highly permeable substance propranolol was used as a control.
After 2 hours incubation at 37 ° C under an atmosphere containing 5% CO2, the amounts of the test substances in the upper and lower chambers were measured by HPLC using an Agilent1200 HPLC system (Agilent, USA), proteins were preliminarily precipitated with acetonitrile. Chromatographic analysis was performed in a gradient elution regime with a flow rate of 1 mL/min. The peak areas corresponding to the compounds were detected on chromatograms.
The value was calculated using the formula: efflux = Papp B−A /Papp A−B , [formula] where • Papp A-E - the value of permeability direct analysis A→ B; • Papp B-A - the value of the permeability of the reverse analysis B→ A.

[5] = Chemical stability in human blood plasma; type: in vitro ADME; details: pooled human blood plasma; 10 µM; 4 hours at 37°C; substance amount in % after thermostatting
Method in brief: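 Pooled plasma from ten healthy human donors; compound diluted from 10 mM DMSO stock to 10 µm final and incubated 4 h at 37°C. After acetonitrile protein precipitation, HPLC peak areas before and after incubation were compared; value is % compound remaining.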

[6] = tested on: KG-1; assay: Cell-based antiproliferative test (AlamarBlue), KG-1; details: Homo sapiens, KG-1; 120 h incubation; average values of several tests; read-out: KG-1 IC50, mkM
Description: (§1) Antiproliferative activity of CDK8 inhibitors according to the present invention was measured in a cell-based test on continuous cell cultures MV4-11 (biphenotypic myelomonocytic leukemia, ATCC® CRL-9591™), KG-1 (acute myeloid leukemia, ATCC® CCL-246™), HL-60 (acute promyelocytic leukemia, ATCC® CCL-240™) using a vital stain AlamarBlue (ThermoFisher, #DAL1100). The cells were grown in RPMI-1640 (PanEco, #C330p) medium with addition of 10% FBS (Gibco, #16140-071); washed and resuspended in culture medium with 10% FBS (Gibco, #16140-071) in 96-well culture plates (Corning, #3599) with ≈ 10 ×10^3 cells in […] of medium per well. The compounds in question were dissolved in DMSO and diluted with a medium with 10% FBS (Gibco, #16140-071) to a final concentration ranging form 0 to 100 µM. […] of diluted compounds were then added to each well (final DMSO concentration was less than 1%) and incubated under 5% CO2 atmosphere at 37°C for 120 h. After incubating, 15 µL of AlamarBlue (ThermoFisher, #DAL1100) reagent was added per well, contents of plates were mixed in an orbital shaker (Biosan, Latvia) and further incubated for 3-5 h at 37°C under 5% CO2 atmosphere. Number of living cells was estimated using a microplate spectrophotometer (Tecan Infinite M200Pro, Switzerland) measuring fluorescent signal at the excitation wavelength (λEx) of 540 nm and emission wavelength (λEm) of 590 nm.
(§2) IC50 was calculated using Magellan 7.2 software (Tecan, Switzerland) approximating experimental points by four-parameter logistic model with the optimization by Levenberg-Marquardt (table 7, table 7).

[7] = Enzyme stability in human liver microsomes; type: in vitro ADME; details: pH 7.4; 0,5 mg/mL pooled human liver microsomes; 10 µM compound; 37°C; pH=7,4
Method in brief: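 Pooled human liver microsomes (0,5 mg/mL) incubated at 37 °C with 10 µM compound, 2 mM β-NAD and 4 mM MgCl2 in 0,1 M sodium phosphate, pH 7,4. Samples quenched with acetonitrile and analysed by HPLC. Elimination rate constant taken from the slope of log peak area versus time, giving t1/2 and CLint.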

[8] = tested on: HL-60; assay: Cell-based antiproliferative test (AlamarBlue), HL-60; details: 120 h incubation, average values of several tests, read-out: HL-60 IC50, mkM
Description: as §1, §2

[9] = Chemical stability in simulated gastric fluid (SGF); type: physicochemical; details: SGF without enzymes, pH=1,4; 10 µm; 2 hours at 37°C; substance amount in % after thermostatting
Method in brief: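 Compounds at […] (diluted from DMSO stock) were incubated for 2 h at 37 °C in enzyme-free simulated gastric fluid, pH=1,4. HPLC peak areas before and after incubation gave the % of compound remaining.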

| Structure (SMILES) | CC50 at 72 h ([1]; HepG2 cells) [µM] | microsomal CLint at 10 µM [2] [µL/min/mg] | IC50 [3] [µM] | Papp A→B at 2 h, 10 µM [4] [×10⁻⁶ cm/s] | efflux ratio at 2 h, 10 µM [4] | Stability in blood plasma, % [5] [%] | IC50 [6] [µM] | microsomal CLint at 10 µM [7] [µL/min/mg] | IC50 ([8]; Homo sapiens, HL-60, 120 h) [µM] | Stability in SGF, % [9] | CC50 at 72 h [1] [µM] | IC50 [8] [µM] |
| --- | --- | --- | --- | --- | --- | --- | --- | --- | --- | --- | --- | --- |
| CCN(CC)C(=O)c1cnc2cncc(-c3ccc(-c4cnn(C)c4)cc3)c2c1 [CDK8-3-23, N,N-Diethyl-5-(4-(1-methyl-1H-pyrazol-4-yl)phenyl)-1,7-naphthyridine-3-carboxamide] | > 100 | 9.2 | 0.413 | – | – | – | – | – | – | – | – | – |
| Cn1cc(-c2ccc(-c3cncc4ncc(C(=O)N5CCC5)cc34)cc2)cn1 [CDK8-3-14, Azetidin-1-yl-(5-(4-(1-methyl-1H-pyrazol-4-yl)phenyl)-1,7-naphthyridin-3-yl) methanone] | > 100 | – | 0.2 | 39.8 | 1.35 | 100 | 0.05 | 13.6 | 69.8 | 100% | – | – |
| CO[C@@H]1CCCN(C(=O)c2cnc3cncc(-c4ccc(-c5cnn(C)c5)cc4)c3c2)C1 [CDK8-3-21, (R)-(3-Methoxypiperidin-1-yl)(5-(4-(1-methyl-1H-pyrazol-4-yl)phenyl)-1,7-naphthyridin-3-yl)methanone] | > 100 | 12.9 | 0.764 | – | – | – | – | – | – | – | – | – |
| Cn1cc(-c2ccc(-c3cnc(N)c4ncc(C(=O)NCC5CC5)cc34)cc2)cn1 [CDK8-3-40, 8-Amino-N-(cyclopropylmethyl)-5-(4-(1-methyl-1H-pyrazol-4-yl)phenyl)-1,7-naphthyridine-3-carboxamide] | 200 | 2.95 | 0.009 | – | – | – | – | – | – | – | – | – |
| COCCNC(=O)c1ccc2nccc(-c3ccc(-c4cnn(C)c4)cc3)c2c1 [CDK8-6-14, N-(2-Methoxyethyl)-4-(4-(1-methyl-1H-pyrazol-4-yl)phenyl)quinoline-6-carboxamide] | > 50 | – | 11.7 | 64.1 | 0.44 | 100 | 9.6 | 11.8 | 66.5 | 100% | – | – |
| COCCNC(=O)c1cnc2cncc(-c3ccc(-c4cnn(C)c4)cc3)c2c1 [CDK8-3-18, N-(2-Methoxyethyl)-5-(4-(1-methyl-1H-pyrazol-4-yl)phenyl)-1,7-naphthyridine-3-carboxamide] | > 200 | – | 0.19 | 46.9 | 0.9 | 100 | 0.08 | 10.4 | 35 | 100% | – | – |
| O=C(c1ccc2ncn(-c3ccc(-c4cn[nH]c4)cc3)c2c1)N1CCCCC1 [CDK8-1-3, (1-(4-(1H-Pyrazol-4-yl)phenyl)-1H-benzo[d]imidazol-6-yl)(piperidin-1-yl) methanone] | 59.1 | – | 2.08 | 64.1 | 0.44 | 97.7 | 27.6 | 24.8 | 81.4 | 100% | – | – |
| COc1cc(-c2cnc3[nH]cc(C(=O)c4cccnc4)c3c2)ccc1N1CCOCC1 [CDK8-4-27, (5-(3-Methoxy-4-morpholinophenyl)-1H-pyrrolo[2,3-b]pyridin-3-yl) (pyridin-3-yl) methanone] | > 100 | – | 0.05 | 84.6 | 0.25 | 100 | 5.21 | 7.2 | > 100 | 100% | – | – |
| COC1CN(C(=O)c2cnc3cncc(-c4ccc(-c5cnn(C)c5)cc4)c3c2)C1 [CDK8-3-15, (3-Methoxyazetidin-1-yl)(5-(4-(1-methyl-1H-pyrazol-4-yl)phenyl)-1,7-naphthyridin-3-yl) methanone] | > 100 | – | 2.45 | – | – | 75.1 | 1.13 | 15.2 | > 60 | 99.3% | – | – |
| O=C(C1CN(c2ccc3ncn(-c4ccc(-c5cn[nH]c5)cc4)c3c2F)C1)N1CCOCC1 [CDK8-1-14, (1-(1-(4-(1H-Pyrazol-4-yl)phenyl)-7-fluoro-1H-benzo[d]imidazol-6-yl)azetidin-3-yl)(morpholino)methanone] | > 100 | – | – | 39.9 | 0.79 | 100 | 23.2 | 12.4 | 33.9 | 92.5% and 100% | > 50 | 60.7 |
| Cn1cc(-c2ccc(-c3cncc4ncc(N5CCCC5=O)cc34)cc2)cn1 [CDK8-3-17, 1-(5-(4-(1-Methyl-1H-pyrazol-4-yl)phenyl)-1,7-naphthyridin-3-yl)pyrrolidin-2-one] | > 20 | – | 8.85 | – | – | 100 | 3.93 | 10.7 | 46.5 | 100% | – | – |
| Cn1cc(-c2ccc(-c3cncc4ncc(C(=O)N5CCCC5)cc34)cc2)cn1 [CDK8-3-16, (5-(4-(1-Methyl-1H-pyrazol-4-yl)phenyl)-1,7-naphthyridin-3 - yl)(pyrrolidin-1-yl) methanone] | > 100 | – | 2.87 | – | – | 100 | 0.94 | 27.8 | > 60 | 100% | – | – |

Source: EP3666770A1, “NOVEL HETEROCYCLIC COMPOUNDS AS CDK8/19 INHIBITORS” (Joint Stock Company "Biocad", priority 2017, dated 2019)
